Test results: publication PMC6084503, “Pyrrolo[3,2-c]pyridine derivatives with potential inhibitory effect against FMS kinase: in vitro biological studies” (Journal of Enzyme Inhibition and Medicinal Chemistry, 2018)

Assays:
[1] = molecular target: T1, FMS kinase (Homo sapiens, UniProt P07333); assay: Kinase HotSpot cell-free enzyme assay, FMS kinase; format: biochemical; conditions: for IC50: 10-dose duplicate assay, mean ± SEM, starting with 81 µM, threefold serial dilution, read-out: IC50 against FMS kinase
T1 construct: purchased Reaction Biology Corp
T1 sequence (P07333 20-972): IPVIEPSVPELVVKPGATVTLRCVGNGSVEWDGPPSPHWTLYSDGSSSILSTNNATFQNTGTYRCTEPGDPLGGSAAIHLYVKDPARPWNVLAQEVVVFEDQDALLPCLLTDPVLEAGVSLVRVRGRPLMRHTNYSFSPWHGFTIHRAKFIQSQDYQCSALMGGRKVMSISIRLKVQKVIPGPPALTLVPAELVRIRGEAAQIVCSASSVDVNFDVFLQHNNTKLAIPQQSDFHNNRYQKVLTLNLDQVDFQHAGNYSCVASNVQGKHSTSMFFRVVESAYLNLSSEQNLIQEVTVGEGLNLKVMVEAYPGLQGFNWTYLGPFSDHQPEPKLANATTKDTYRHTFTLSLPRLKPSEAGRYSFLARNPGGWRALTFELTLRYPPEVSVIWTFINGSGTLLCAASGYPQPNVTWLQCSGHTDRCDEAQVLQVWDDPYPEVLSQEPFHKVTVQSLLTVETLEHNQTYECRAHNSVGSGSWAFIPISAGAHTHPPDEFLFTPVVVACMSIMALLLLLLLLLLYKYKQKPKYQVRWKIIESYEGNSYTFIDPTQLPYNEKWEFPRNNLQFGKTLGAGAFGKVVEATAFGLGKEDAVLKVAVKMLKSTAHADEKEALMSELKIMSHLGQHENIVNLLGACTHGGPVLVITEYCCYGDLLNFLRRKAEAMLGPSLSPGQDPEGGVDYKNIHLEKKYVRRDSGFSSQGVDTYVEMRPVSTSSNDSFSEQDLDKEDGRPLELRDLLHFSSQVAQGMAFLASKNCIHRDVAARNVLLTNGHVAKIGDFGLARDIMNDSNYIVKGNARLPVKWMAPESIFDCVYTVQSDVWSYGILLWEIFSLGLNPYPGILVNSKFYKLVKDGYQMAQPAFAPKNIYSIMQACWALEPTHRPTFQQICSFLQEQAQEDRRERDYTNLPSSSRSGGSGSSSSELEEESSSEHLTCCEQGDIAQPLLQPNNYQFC
Method: Reaction Biology Corp. Kinase HotSpot^SM service [http://www.reactionbiology.com] was utilised for screening of the target compounds as per the protocol reported in the literature.
Compounds 1a–r were tested in a 10-dose testing mode starting with 81 µM, threefold serial dilutions, against FMS kinase in a cell-free enzyme assay. […] This can be due to occupancy of a hydrophobic pocket with that additional benzoyl moiety and/or formation of additional hydrogen bond by the carbonyl oxygen.

SMILES | IC50 [1] | Potency against FMS kinase relative to KIST101029 ([1]; ratio of IC50 values, more potent than lead compound KIST101029) | melting point
O=C(Nc1ccc(-n2ccc3c(NC(=O)c4ccccc4)nccc32)cc1)c1ccc(N2CCOCC2)c(C(F)(F)F)c1 [Compound 1j] | 33.1 ± 0.45 µM | – | –
Nc1nccc2c1ccn2-c1ccc(NC(=O)c2ccc(Cl)c(Cl)c2)cc1 [Compound 1n] | > 81 µM | – | –
O=C(Nc1ccc(-n2ccc3c(NC(=O)c4ccccc4)nccc32)cc1)c1cccc(C(F)(F)F)c1 [Compound 1h] | 10.8 ± 0.6 µM | – | –
Nc1nccc2c1ccn2-c1cccc(NC(=O)c2ccc(Cl)c(Cl)c2)c1 [Compound 1o] | 40.7 ± 2.4 µM | – | > 280 °C
O=C(Nc1cccc(-n2ccc3c(NC(=O)c4ccccc4)nccc32)c1)c1cccc(C(F)(F)F)c1 [Compound 1i] | > 81 µM | – | 142 to 144 °C
O=C(Nc1cccc(-n2ccc3c(NC(=O)c4ccccc4)nccc32)c1)Nc1ccc(Cl)c(C(F)(F)F)c1 [Compound 1d] | 2.47 ± 0.03 µM | – | 143 to 145 °C
Nc1nccc2c1ccn2-c1ccc(NC(=O)Nc2cc(C(F)(F)F)cc(C(F)(F)F)c2)cc1 [Compound 1m] | 1.45 ± 0.03 µM | – | –
Nc1nccc2c1ccn2-c1ccc(NC(=O)Nc2ccc(Cl)c(C(F)(F)F)c2)cc1 [Compound 1l] | 3.2 ± 0.07 µM | – | > 280 °C
O=C(Nc1ccc(-n2ccc3c(NC(=O)c4ccccc4)nccc32)cc1)c1ccc(Cl)c(Cl)c1 [Compound 1f] | > 81 µM | – | –

These reach a lower IC50 [1]. Values come first.

IC50 [1] | Potency against FMS kinase relative to KIST101029 ([1]; ratio of IC50 values, more potent than lead compound KIST101029) | melting point | SMILES
1.27 ± 0.07 µM | – | – | O=C(Nc1cccc(-n2ccc3c(NC(=O)c4ccccc4)nccc32)c1)c1ccc(Cl)c(Cl)c1 [Compound 1g]
0.39 ± 0.02 µM | – | – | O=C(Nc1ccc(-n2ccc3c(NC(=O)c4ccccc4)nccc32)cc1)Nc1ccc(Cl)c(C(F)(F)F)c1 [Compound 1c]
0.1 ± 0.03 µM | – | 253 to 256 °C (dec.) | Nc1nccc2c1ccn2-c1ccc(NC(=O)c2ccc(N3CCOCC3)c(C(F)(F)F)c2)cc1 [Compound 1p]
0.06 ± 0.01 µM | 1.6 times | > 280 °C | O=C(Nc1ccc(-n2ccc3c(NC(=O)c4ccccc4)nccc32)cc1)Nc1cc(C(F)(F)F)cc(C(F)(F)F)c1 [Compound 1e]
